The target of test [1] is Adenosine receptor A2a (Rattus norvegicus, UniProt P30543). Description: Binding affinity was determined in radioligand binding assay at rat striatal Adenosine A2A receptor vs [3H]-CGS- 21680.
Test [2] can be described thus: Ratio against rat A2A receptor and Human A3 receptor.
A short description of test [3]: Ratio against rat A1 receptor and Human A3 receptor.
The target of test [4] is T1, Adenosine receptor A1 (Rattus norvegicus, UniProt P25099).
T1 sequence (P25099 whole entry): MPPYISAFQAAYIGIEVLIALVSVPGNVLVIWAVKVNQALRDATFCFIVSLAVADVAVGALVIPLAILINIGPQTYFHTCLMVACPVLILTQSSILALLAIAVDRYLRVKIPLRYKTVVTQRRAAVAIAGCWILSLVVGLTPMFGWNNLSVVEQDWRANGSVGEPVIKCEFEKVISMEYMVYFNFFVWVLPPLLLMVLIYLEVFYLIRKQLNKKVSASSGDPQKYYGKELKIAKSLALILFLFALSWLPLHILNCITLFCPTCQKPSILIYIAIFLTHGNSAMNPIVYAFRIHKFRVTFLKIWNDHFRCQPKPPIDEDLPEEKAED
Description: Binding affinity was determined in radioligand binding assay at rat brain adenosine A1 receptor vs [3H]R-PIA

Test [5] concerns the target T2, Adenosine receptor A3 (Homo sapiens, UniProt P0DMS8).
T2 sequence (P0DMS8 whole entry): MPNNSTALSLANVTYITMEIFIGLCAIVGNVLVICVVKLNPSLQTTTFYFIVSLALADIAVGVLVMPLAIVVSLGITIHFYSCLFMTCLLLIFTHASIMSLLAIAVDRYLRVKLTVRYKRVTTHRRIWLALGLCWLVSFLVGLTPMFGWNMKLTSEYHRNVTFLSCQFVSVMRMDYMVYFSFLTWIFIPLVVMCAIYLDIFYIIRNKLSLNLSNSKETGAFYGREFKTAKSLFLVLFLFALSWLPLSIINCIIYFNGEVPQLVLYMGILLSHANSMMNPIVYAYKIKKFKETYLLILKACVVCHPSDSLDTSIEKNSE
Description: biochemical.
Description: Binding affinity at cloned human adenosine A3 receptor expressed in HEK293 cells was determined using [125I]AB-MECA as radioligand

Test [6] has as its target T3, Adenosine receptor A2b (Homo sapiens) (UniProt P29275).
T3 sequence (whole entry): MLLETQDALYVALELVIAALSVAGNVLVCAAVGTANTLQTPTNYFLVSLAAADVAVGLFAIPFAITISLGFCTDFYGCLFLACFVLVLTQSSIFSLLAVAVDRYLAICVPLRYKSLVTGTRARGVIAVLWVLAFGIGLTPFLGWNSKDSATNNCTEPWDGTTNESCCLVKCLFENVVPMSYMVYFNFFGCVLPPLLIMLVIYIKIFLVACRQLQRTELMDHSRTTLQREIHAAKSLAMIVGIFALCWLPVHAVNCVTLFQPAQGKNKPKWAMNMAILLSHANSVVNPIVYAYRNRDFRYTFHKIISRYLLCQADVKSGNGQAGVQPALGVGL
Description: Inhibition at 50 uM on cAMP production induced by 50 uM 5`-(N-ethylcarboxamido)adenosine in CHO cell line transfected with human Adenosine A2B receptor cDNA. It is filed as cell-based. In general terms: Changes in cAMP serve as a functional read-out for many G protein-coupled receptors.

The structures appear in SMILES notation.

By Ki is commonly meant a dissociation constant, usually derived from enzyme kinetics or from competition with a known ligand. High values mean weaker binding, low ones tighter binding. The inhibition is the share of the control response that was lost under treatment.

Adenosine receptor A2a, sequence (P30543 whole entry): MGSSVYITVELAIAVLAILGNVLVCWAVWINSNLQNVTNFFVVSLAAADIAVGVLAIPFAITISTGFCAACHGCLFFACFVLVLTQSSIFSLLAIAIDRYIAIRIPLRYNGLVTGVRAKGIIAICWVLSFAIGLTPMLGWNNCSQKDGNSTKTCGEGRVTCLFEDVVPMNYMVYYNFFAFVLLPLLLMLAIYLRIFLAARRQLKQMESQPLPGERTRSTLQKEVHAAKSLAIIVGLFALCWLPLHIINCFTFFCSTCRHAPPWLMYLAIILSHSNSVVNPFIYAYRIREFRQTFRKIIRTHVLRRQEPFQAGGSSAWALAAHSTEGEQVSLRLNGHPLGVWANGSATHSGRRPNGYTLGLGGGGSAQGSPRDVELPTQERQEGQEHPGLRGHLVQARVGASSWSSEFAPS

With `CC(C)(C)OC(=O)NCCC(=O)Nc1nc2ccc(Cl)cc2c2nc(-c3ccco3)nn12`, the inhibitory constant (Ki) in test [1] is 7.58 nM; in test [4], 31 nM; in test [5], 6.71 nM. Further, the figures for the Selectivity ratio in test [2] and in test [3] were 1.1 and 4.6, respectively.

Compound `Nc1nc2ccc(Cl)cc2c2nc(-c3ccco3)nn12` [CGS-15943] had an inhibition in test [6] of 100%. The compound further displayed a Ki in test [1] of 3.3 nM.

In the case of `Clc1ccc2nc(NCc3ccccc3)n3nc(-c4ccco4)nc3c2c1`, in test [6], the inhibition was 21%. Also, the figures for the inhibitory constant (Ki) in test [1] and in test [5] were 200 nM and 42.5 nM, respectively. Further, the Selectivity ratio in test [2] turned out to be 4.7; in test [3], 28.

Regarding `O=C(Nc1nc2ccc(Cl)cc2c2nc(-c3ccco3)nn12)C(c1ccccc1)c1ccccc1`, the results for the inhibition constant (Ki) in test [1], in test [4] and in test [5] were 12.1 nM, 129 nM and 0.586 nM, respectively. Further, the values for the Selectivity ratio in test [2] and in test [3] were 21 and 220, respectively.

Consider `CCO/C(O)=C1\C(C)=NC(c2ccccc2)=C(C(=O)OCc2ccc([N+](=O)[O-])cc2)C1C#Cc1ccccc1` (configuration not stated), for which the Ki in test [1] and in test [4] was > 100 nM in each case.

Consider `CC(C)(C)OC(=O)NCCCC(=O)Nc1nc2ccc(Cl)cc2c2nc(-c3ccco3)nn12`, for which, in test [6], the inhibition is 47%. For the same compound, the inhibitory constant (Ki) in test [1] was found to be 19.9 nM; in test [4] it was 45.9 nM. The Selectivity ratio in test [2] stood at 0.6; in test [3], 1.4.

Compound `Nc1nc2ccc(Cl)cc2c2nc(-c3ccc(Br)o3)nn12` yielded an inhibition in test [6] of 16%.

In test [6], `O=C(Cc1ccccc1)Nc1nc2ccc(Cl)cc2c2nc(-c3ccco3)nn12` came in with an inhibition of 71%. Moreover, the Ki in test [1] came out at 10.3 nM; in test [4], 52.7 nM.

As to `CC(C)(C)OC(=O)NCCCCCC(=O)Nc1nc2ccc(Cl)cc2c2nc(-c3ccco3)nn12`, the Ki was determined as 33.7 nM in test [1], 53.8 nM in test [4] and 33.8 nM in test [5]. Further, the Selectivity ratio stood at 1 in test [2] and 1.6 in test [3].

As to `COC(=O)CCC(=O)Nc1nc2ccc(Cl)cc2c2nc(-c3ccco3)nn12`, the Ki turned out to be 28.8 nM in test [1], 71.8 nM in test [4] and 55.1 nM in test [5]. Further, the results for the Selectivity ratio in test [2] and in test [3] were 0.52 and 1.3, respectively.

For `C[C@H](N)C(=O)Nc1nc2ccc(Cl)cc2c2nc(-c3ccco3)nn12`, the figures for the inhibition constant (Ki) in test [1], in test [4] and in test [5] were 143 nM, 390 nM and 1200 nM, respectively. Moreover, the results for the Selectivity ratio in test [2] and in test [3] were 0.12 and 0.33, respectively.

In test [6], `O=C(Nc1nc2ccc(Cl)cc2c2nc(-c3ccc(Br)o3)nn12)c1ccccc1` showed an inhibition of 0%.

On to `O=C(Cc1cccc(I)c1)Nc1nc2ccc(Cl)cc2c2nc(-c3ccco3)nn12`, for which the inhibition constant Ki in test [1] was 9.67 nM; in test [4], 45.4 nM; in test [5], 882 nM. Further, the Selectivity ratio in test [2] came out at 0.011; in test [3] it was 0.051.

As to `Oc1nc2ccc(Cl)cc2c2nc(-c3ccco3)nn12`, the inhibition in test [6] turned out to be 0%.

As for `CC(C)(C)OC(=O)NCCCCC(=O)Nc1nc2ccc(Cl)cc2c2nc(-c3ccco3)nn12`, the Ki in test [1] worked out at 3.64 nM; in test [4] it was 30.1 nM; in test [5], 22 nM. The results for the Selectivity ratio in test [2] and in test [3] were 0.17 and 1.4, respectively.

As for `C[C@H](C(=O)Nc1nc2ccc(Cl)cc2c2nc(-c3ccco3)nn12)c1ccccc1`, the Ki was 11.1 nM in test [1], 46.2 nM in test [4] and 0.362 nM in test [5]. For the same compound, the Selectivity ratio stood at 31 in test [2] and 130 in test [3].

In test [6], `CCCC(=O)Nc1nc2ccc(Cl)cc2c2nc(-c3ccco3)nn12` gave an inhibition of 66%.

Consider `CC(C)(C)OC(=O)NCCCCCCC(=O)Nc1nc2ccc(Cl)cc2c2nc(-c3ccco3)nn12`, for which the inhibition constant Ki is 11.1 nM in test [1], 38.2 nM in test [4] and 53.7 nM in test [5]. Also, the results for the Selectivity ratio in test [2] and in test [3] were 0.21 and 0.71, respectively.

In the case of `COc1ccc(CC(=O)Nc2nc3ccc(Cl)cc3c3nc(-c4ccco4)nn23)cc1`, the results for the Ki in test [1], in test [4] and in test [5] were 28 nM, 30.2 nM and 14.4 nM, respectively. Further, the Selectivity ratio in test [2] stood at 1.9; in test [3], 2.1.

Take `O=C(Cc1ccccc1I)Nc1nc2ccc(Cl)cc2c2nc(-c3ccco3)nn12`: the inhibition constant (Ki) in test [1] is 17.2 nM; in test [4], 2300 nM; in test [5], > 10000 nM. The Selectivity ratio in test [2] and in test [3] was < 1 each time.

With `CC(C(=O)Nc1nc2ccc(Cl)cc2c2nc(-c3ccco3)nn12)(c1ccccc1)c1ccccc1`, the Ki was found to be 453 nM in test [1], 890 nM in test [4] and 194 nM in test [5]. Moreover, the Selectivity ratio in test [2] was 2.3; in test [3], 4.6.

For `COC(=O)CCCCCCC(=O)Nc1nc2ccc(Cl)cc2c2nc(-c3ccco3)nn12`, the inhibition constant (Ki) turned out to be 7.43 nM in test [1], 46.6 nM in test [4] and 59 nM in test [5]. For the same compound, the results for the Selectivity ratio in test [2] and in test [3] were 0.13 and 0.79, respectively.

As to `O=C(CCCCC(=O)OCc1ccccc1)Nc1nc2ccc(Cl)cc2c2nc(-c3ccco3)nn12`, the Ki in test [1] amounted to 16.7 nM; in test [4], 304 nM; in test [5], 44.7 nM. Moreover, the values for the Selectivity ratio in test [2] and in test [3] were 0.37 and 6.8, respectively.

In the case of `C[C@@H](NC(=O)OC(C)(C)C)C(=O)Nc1nc2ccc(Cl)cc2c2nc(-c3ccco3)nn12`, the Ki in test [1] was found to be 18.8 nM; in test [4] it was 48.6 nM; in test [5], 46.3 nM. Further, the Selectivity ratio is 0.41 in test [2] and 1 in test [3].

`CCCCC(=O)Nc1nc2ccc(Cl)cc2c2nc(-c3ccco3)nn12` displayed an inhibition in test [6] of 79%.

Consider `CC(NC(=O)OC(C)(C)C)C(=O)Nc1nc2ccc(Cl)cc2c2nc(-c3ccco3)nn12` (configuration not stated), for which the inhibition constant Ki in test [1] is 6.65 nM; in test [4], 54.7 nM; in test [5], 82.9 nM. Further, the Selectivity ratio was 0.08 in test [2] and 0.66 in test [3].

For the compound `CCC(=O)Nc1nc2ccc(Cl)cc2c2nc(-c3ccco3)nn12`, in test [6], the inhibition is 66%.

In test [6], `O=C(CCc1ccccc1)Nc1nc2ccc(Cl)cc2c2nc(-c3ccco3)nn12` registered an inhibition of 43%. Besides, the Ki in test [5] was 23.6 nM.

In turn, `O=C(Nc1nc2ccc(Cl)cc2c2nc(-c3ccco3)nn12)c1cccc(I)c1` gave an inhibition in test [6] of 38%.

In the case of `CCCn1c(=O)n2nc(-c3ccco3)nc2c2cc(Cl)ccc21`, the inhibition in test [6] came to 0%.

`C[C@@H](N)C(=O)Nc1nc2ccc(Cl)cc2c2nc(-c3ccco3)nn12`: the values for the Ki in test [1], in test [4] and in test [5] were 29.7 nM, 193 nM and 1140 nM, respectively. The values for the Selectivity ratio in test [2] and in test [3] were 0.026 and 0.17, respectively.

As to `C[C@@H](C(=O)Nc1nc2ccc(Cl)cc2c2nc(-c3ccco3)nn12)c1ccccc1`, the Ki in test [1] is 20.1 nM; in test [4] it was 37.5 nM; in test [5], 0.468 nM.

For `CCO/C(O)=C1\C(C)=NC(c2ccccc2)=C(C(=O)OCc2ccccc2)C1C#Cc1ccccc1` (configuration not stated), the Ki in test [1] was > 100 nM.

In test [6], `O=C(Nc1nc2ccc(Cl)cc2c2nc(-c3ccco3)nn12)c1ccccc1` showed an inhibition of 58%.

The values above are taken from ChEMBL document CHEMBL1131038, “Derivatives of the triazoloquinazoline adenosine antagonist (CGS 15943) having high potency at the human A2B and A3 receptor subtypes” (J Med Chem, 1998).
